Experimental findings from patent US9040727B2, “Histone deacetylase inhibitor of benzamides and use thereof” (Shanghai Institute of Pharmaceutical Industry, priority 2011, dated 2015) are described below.

Structures are written as SMILES.

One test addresses HDAC1 (Homo sapiens (Human), UniProt Q13547). As to the kind of experiment: In vitro inhibitory activity towards HDAC1 (HDAC Inhibitor Drug Screening Kit). The settings on record: for inhibitory activity against HDAC1 compared with MS-275 (by IC50): comparison with MS-275; for inhibition at 1 µM: compound at 1 μM; for inhibition at 10 µM: compound at 10 μM. The class given is biochemical. The method, then:
(1) The compounds to be tested were each individually prepared as 10 μM and 1 μM solutions and their inhibitory activities towards HDAC1 at these concentrations were tested.
(§1) Each dilution sample was placed in two wells and the enzyme inhibition IC50 of the compound was tested.

In the next test the test system is HDACs. Kind of test: In vitro inhibition of HDACs (HDAC Inhibitor Drug Screening Kit). Conditions: for inhibitory activity on HDACs compared with MS-275 (by IC50): comparison with MS-275. Format: biochemical. The method, then: The test was conducted according to the instructions in the HDAC Inhibitor Drug Screening Kit (Biovision/Catalog #50051, BPS).
as §1

The test system of test [1] is multiple strains of tumor cells. Kind of test: In vitro inhibition of proliferation of tumor cell strains (overall comparison). The class given is cell-based. Conditions: comparison with MS-275. The method, then: (§2) The inhibitory activities of the compounds towards Hut78 T lymphocytic leukemia cells, Jurkat E6-1 human T-cell lymphoma, A549 human lung cancer cells, K562 human chronic myelogenous leukemia cells, Hep3B2.1-7 human liver cancer cells, MDA-MB-435s human breast cancer cells, Colo320 human rectal cancer cell line, and PC-3 human prostate cancer were determined. The inhibition percentages as represented by IC50 values were obtained through CCK-8 method.

Test [2] relates to PC-3 human prostate cancer. As to the kind of experiment: In vitro anti-proliferative effect, CCK-8 method. The settings on record: Homo sapiens. Format: cell-based. The method, then: as §2
The test system of test [3] is Hut78 T lymphocytic leukemia cells. As to the kind of experiment: In vitro anti-proliferative effect, CCK-8 method. The settings on record: Homo sapiens, HuT78. Format: cell-based. The method, then: as §2
In general terms: Tetrazolium assays rely on reduction of a dye to a coloured formazan, in cell work by metabolically active cells.

In test [4] the test system is A549 human lung cancer cells. As to the kind of experiment: In vitro anti-proliferative effect, CCK-8 method. The class given is cell-based. The settings on record: Homo sapiens. How it is done:
as §2

Test [5] relates to Colo320 human rectal cancer cell line. Kind of test: In vitro anti-proliferative effect, CCK-8 method. Conditions: Homo sapiens, COLO 320. The class given is cell-based. How it is done: as §2
The subject of test [6] is Jurkat E6-1 human T-cell lymphoma. As to the kind of experiment: In vitro anti-proliferative effect, CCK-8 method. Conditions: Homo sapiens. The class given is cell-based. How it is done:
as §2

Test [7] deals with Hep3B2.1-7 human liver cancer cells. As to the kind of experiment: In vitro anti-proliferative effect, CCK-8 method. Format: cell-based. The settings on record: Homo sapiens, Hep3B. How it is done:
as §2

Test [8] deals with K562 human chronic myelogenous leukemia cells. Kind of test: In vitro anti-proliferative effect, CCK-8 method. Format: cell-based. How it is done:
as §2

Broadly, the IC50 is the midpoint of a concentration-inhibition curve. Higher therefore signals a need for much substance. As a reminder, the inhibition is how much of the control response was suppressed. A higher inhibition goes with strong suppression.

Sequence of HDAC1 (Q13547 whole entry): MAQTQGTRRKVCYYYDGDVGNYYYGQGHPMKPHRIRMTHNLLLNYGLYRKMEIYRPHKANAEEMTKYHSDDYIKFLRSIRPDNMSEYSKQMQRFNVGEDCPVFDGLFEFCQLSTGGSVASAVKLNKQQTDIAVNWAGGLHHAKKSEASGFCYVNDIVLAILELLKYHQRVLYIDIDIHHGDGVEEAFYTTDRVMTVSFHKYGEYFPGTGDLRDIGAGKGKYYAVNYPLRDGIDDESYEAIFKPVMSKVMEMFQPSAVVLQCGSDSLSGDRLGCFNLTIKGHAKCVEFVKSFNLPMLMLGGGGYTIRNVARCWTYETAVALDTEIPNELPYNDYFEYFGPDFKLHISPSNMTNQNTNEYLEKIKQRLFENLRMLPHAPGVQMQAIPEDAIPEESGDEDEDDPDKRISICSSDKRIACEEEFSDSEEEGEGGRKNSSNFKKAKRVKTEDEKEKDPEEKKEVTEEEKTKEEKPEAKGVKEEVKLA

Take `CC(=O)Nc1ccc2[nH]c(C(=O)NCc3ccc(C(=O)Nc4ccccc4N)cc3)cc2c1` [Compound V-25]: the 50% inhibitory concentration (IC50) was determined as 301 nM on HDAC1; 1020 nM in the test with HDACs; 69 nM in test [2]; 877 nM in test [3]; 0.295 µM in test [4]. Also, the “inhibitory activity against HDAC1 compared with MS-275 (by IC50)” value on HDAC1 is on record as “better inhibitory activities against HDAC1 as compared with MS-275”. On HDAC1, this compound registered an inhibition at 1 µM of 53.9%. For the same compound, on HDAC1, the inhibition at 10 µM worked out at 76.2%. Moreover, the “inhibition rate for tumor cells compared with MS-275” value in test [1] is recorded as “higher inhibition rate for multiple strains of tumor cells as compared with MS-275”.

On HDAC1, `Nc1ccccc1NC(=O)c1ccc(CNC(=O)c2cc3cc(F)ccc3[nH]2)cc1` [Compound V-18] yielded an inhibition at 1 µM of 22.1% and an inhibition at 10 µM of 49.5%.

With `Nc1ccc(F)cc1NC(=O)c1ccc(CNC(=O)c2cccc3ccccc23)cc1` [Compound V-17], at HDAC1, the IC50 stood at 735 nM, the inhibition at 1 µM amounted to 54% and the inhibition at 10 µM was determined as 76.2%. For the same compound, in the test on HDACs, the IC50 was 920 nM and the “inhibitory activity on HDACs compared with MS-275 (by IC50)” value is recorded as “better inhibitory activities than MS-275”.

Consider `Nc1ccc(F)cc1NC(=O)c1ccc(CNC(=O)c2cc3ccccc3s2)cc1` [Compound V-27], for which the IC50 against HDAC1 turned out to be 276 nM; in the test on HDACs it was 1220 nM; in test [2], 3570 nM; in test [3] it was 55.8 nM; in test [5], 27 µM; in test [4], 5.09 µM. The figures for the IC50 in test [6], in test [7] and in test [8] were 1390 nM, 16 µM and 2810 nM, respectively. Besides, the “inhibitory activity against HDAC1 compared with MS-275 (by IC50)” value at HDAC1 is on record as “better inhibitory activities against HDAC1 as compared with MS-275”. On HDAC1, this compound returned an inhibition at 1 µM of 47.6%. Further, testing at 10 µM against HDAC1 gave an inhibition of 80.2%. For the same compound, in test [1], the “inhibition rate for tumor cells compared with MS-275” value was “higher inhibition rate for multiple strains of tumor cells as compared with MS-275”.

As for `Nc1ccccc1NC(=O)c1ccc(CNC(=O)c2ccc3ccccc3c2)cc1` [Compound V-1], on HDAC1, the inhibition at 1 µM stood at 4.49% and 10 µM produced 15.2% inhibition.

On HDAC1, `Nc1ccccc1NC(=O)c1ccc(CNC(=O)c2cc3ccccc3s2)cc1` [Compound V-24] gave an IC50 of 1580 nM, an inhibition at 1 µM of 59.1% and an inhibition at 10 µM of 67.4%. Besides, in the test on HDACs, the IC50 was 1720 nM and the “inhibitory activity on HDACs compared with MS-275 (by IC50)” value is “better inhibitory activities than MS-275”.

Turning to `Nc1ccccc1NC(=O)c1ccc(CNC(=O)c2cc3cc(C(F)(F)F)ccc3[nH]2)cc1` [Compound V-20], at HDAC1, the inhibition at 1 µM was determined as 39.4% and the inhibition at 10 µM was found to be 72.2%.

As for `Nc1ccccc1NC(=O)c1ccc(CNC(=O)c2cccc3ccccc23)cc1` [Compound V-15], the “inhibitory activity against HDAC1 compared with MS-275 (by IC50)” value on HDAC1 was “better inhibitory activities against HDAC1 as compared with MS-275”. For the same compound, the inhibition at 1 µM against HDAC1 is 29.8%. This compound also had an inhibition at 10 µM on HDAC1 of 67.5%. The “inhibitory activity on HDACs compared with MS-275 (by IC50)” value in the test with HDACs is given as “better inhibitory activities than MS-275”. Besides, the IC50 in test [2] was 2630 nM; in test [3] it was 2780 nM; in test [5] it was 9.34 µM; in [6], 1370 nM; in test [7] it was 2.76 µM; in test [8], 2880 nM.

At HDAC1, `Nc1ccc(F)cc1NC(=O)c1ccc(CNC(=O)c2cc3ccccc3[nH]2)cc1` [Compound V-7] had an inhibition at 1 µM of 41.4% and an inhibition at 10 µM of 53.3%.

Take `Nc1ccc(-c2ccccc2)cc1NC(=O)c1ccc(CNC(=O)c2cc3ccccc3o2)cc1` [Compound V-11]: at HDAC1, 1 µM produced 38.1% inhibition and the inhibition at 10 µM worked out at 58.5%.

For `Nc1ccccc1NC(=O)c1ccc(CNC(=O)c2cc3ccccc3o2)cc1` [Compound V-8], on HDAC1, testing at 1 µM gave an inhibition of 62.2% and testing at 10 µM gave an inhibition of 79.5%.

On HDAC1, `COc1ccc2cc(C(=O)NCc3ccc(C(=O)Nc4ccccc4N)cc3)ccc2c1` [Compound V-3] yielded an inhibition at 1 µM of 33.3% and an inhibition at 10 µM of 60%.

In the case of `CNc1ccc2[nH]c(C(=O)NCc3ccc(C(=O)Nc4ccccc4N)cc3)cc2c1` [Compound V-22], at HDAC1, the inhibition at 1 µM was determined as 36.8% and the inhibition at 10 µM is 59.5%.

In the case of `Nc1ccc(-c2cccs2)cc1NC(=O)c1ccc(CNC(=O)c2cc3ccccc3o2)cc1` [Compound V-10], on HDAC1, the inhibition at 1 µM was determined as 58.9% and the inhibition at 10 µM was determined as 75.4%.

At HDAC1, `Nc1ccc(F)cc1NC(=O)c1ccc(CNC(=O)c2nc3ccccc3[nH]2)cc1` [Compound V-13] had an inhibition at 1 µM of 13.4% and an inhibition at 10 µM of 23.9%.

At HDAC1, `Nc1ccc(F)cc1NC(=O)c1ccc(CNC(=O)c2ccc3ccccc3c2)cc1` [Compound V-2] displayed an inhibition at 1 µM of 28.8% and an inhibition at 10 µM of 46.9%.

As to `COc1c(C(=O)NCc2ccc(C(=O)Nc3ccccc3N)cc2)oc2ccccc12` [Compound V-21], at HDAC1, inhibition was half-maximal at 758 nM (IC50), at 1 µM the inhibition was 34.4% and the inhibition at 10 µM was found to be 68.8%. In addition, half-maximal inhibition in the test on HDACs (IC50) required 9400 nM.

For the compound `Cc1ccc2[nH]c(C(=O)NCc3ccc(C(=O)Nc4ccccc4N)cc3)cc2c1` [Compound V-19], the IC50 amounted to 414 nM on HDAC1; 1140 nM with HDACs; 191 nM in test [2]; 1190 nM in test [3]; 10.2 µM in [7]; 1910 nM in [8]. In addition, the “inhibitory activity against HDAC1 compared with MS-275 (by IC50)” value against HDAC1 was “better inhibitory activities against HDAC1 as compared with MS-275”. The same compound registered an inhibition at 1 µM against HDAC1 of 73.1%. This compound showed an inhibition at 10 µM against HDAC1 of 84%. Also, the “inhibitory activity on HDACs compared with MS-275 (by IC50)” value in the test on HDACs was “better inhibitory activities than MS-275”. Also, the “inhibition rate for tumor cells compared with MS-275” value in test [1] is recorded as “higher inhibition rate for multiple strains of tumor cells as compared with MS-275”.

At HDAC1, `COc1ccc2cc(C(=O)NCc3ccc(C(=O)Nc4cc(F)ccc4N)cc3)ccc2c1` [Compound V-4] came in with an inhibition at 1 µM of 24.7% and an inhibition at 10 µM of 44.8%.

For `CC(=O)c1ccc2[nH]c(C(=O)NCc3ccc(C(=O)Nc4ccccc4N)cc3)cc2c1` [Compound V-26], the IC50 on HDAC1 worked out at 509 nM; with HDACs it was 1370 nM; in [2], 12200 nM; in test [3], 231 nM; in [5], 88.4 µM; in [4] it was 29.9 µM. In addition, the IC50 in test [6] amounted to 12400 nM; in test [7], 52.2 µM; in test [8], 19900 nM. Further, on HDAC1, the “inhibitory activity against HDAC1 compared with MS-275 (by IC50)” value was “better inhibitory activities against HDAC1 as compared with MS-275”. Testing at 1 µM on HDAC1 gave an inhibition of 59.3%. On HDAC1, the inhibition at 10 µM came to 70.8%.

For `Nc1ccccc1NC(=O)c1ccc(CNC(=O)c2nc3ccccc3[nH]2)cc1` [Compound V-12], at HDAC1, testing at 1 µM gave an inhibition of 8.7% and the inhibition at 10 µM was 28.4%.

As to `Nc1ccc2[nH]c(C(=O)NCc3ccc(C(=O)Nc4ccccc4N)cc3)cc2c1` [Compound V-23], at HDAC1, half-maximal inhibition (IC50) was put at 998 nM, testing at 1 µM gave an inhibition of 67.1% and the inhibition at 10 µM is 78.8%. This compound came in with an IC50 in the test on HDACs of 6890 nM.

In the case of `Nc1cnccc1NC(=O)c1ccc(CNC(=O)c2cc3ccccc3s2)cc1` [Compound V-28], at HDAC1, the IC50 is 731 nM, the inhibition at 1 µM amounted to 53.5% and at 10 µM the inhibition was 77.4%. The compound further displayed an IC50 in the test with HDACs of 1310 nM.

On to `Nc1cnccc1NC(=O)c1ccc(CNC(=O)c2cccc3ccccc23)cc1` [Compound V-16], for which the IC50 against HDAC1 amounted to 276 nM; in the test with HDACs, 3110 nM; in test [3] it was 1790 nM; in [5], 86 µM; in test [7], 3.36 µM; in test [8], 6080 nM. Moreover, the “inhibitory activity against HDAC1 compared with MS-275 (by IC50)” value against HDAC1 is “better inhibitory activities against HDAC1 as compared with MS-275”. This compound displayed an inhibition at 1 µM on HDAC1 of 62.5%. The compound further yielded an inhibition at 10 µM against HDAC1 of 85.1%. Also, the “inhibitory activity on HDACs compared with MS-275 (by IC50)” value in the test with HDACs is listed as “better inhibitory activities than MS-275”.

`Nc1ccc(-c2ccco2)cc1NC(=O)c1ccc(CNC(=O)c2nc3ccccc3[nH]2)cc1` [Compound V-14]: the “inhibitory activity against HDAC1 compared with MS-275 (by IC50)” value at HDAC1 is reported as “better inhibitory activities against HDAC1 as compared with MS-275”. On HDAC1, this compound registered an inhibition at 1 µM of 74.8%. 10 µM produced 87.2% inhibition at HDAC1. Also, the IC50 amounted to 356 nM in [3]; 3.14 µM in test [4]; 458 nM in test [6]; 1.52 µM in test [7]; 437 nM in [8].
